The values that follow come from US10583119B2, “Compounds, compositions and methods for making the same” (Signum Biosciences, Inc., priority 2008, dated 2020).

Each structure is given as a SMILES string.

For one test, the target named is T1, PP2A (Homo sapiens, UniProt P67775).
T1 construct: made in house
Nature of the test: Phosphatase activity of PP2A using phosphorylase a as substrate. The note with it: un-methylated PP2A, protein substrate phosphorylase a, absence of ME and MT. It counts as biochemical. As to the method: After the reaction, proteins were precipitated by 50% (NH4)2SO4 (final concentration) twice, and collected by centrifugation. The pellet was re-dissolved and dialyzed in a buffer containing 50 mM Tris-HCl (pH6.9) and ImM DTT for 2×2 L at 4° C. overnight. Phosphorylase a (phospho-phosphorylase b) crystallized during the dialysis. The dialysate was centrifuged 14,000 r.p.m at 4° C. for 30 minutes, the supernatant was removed and purified ^32P-labelled phosphorylase a was re-dissolved in +50% glycerol, and stored at −20° C.
To measure PP2A's phosphatase activity, PP2A (5-20 nM) was incubated with phosphorylase a (5-10 μM) at 37° C. 10% TCA (final concentration) and was added to the reaction to precipitate proteins. Supernatant that contains free ^32P-phosphate group was added into scintillation counting solution (Ecoscint, National Diagnostics), and counted by scintillation counter (LS 6000SE, Beckman).

For test [1], the target named is T2, protein phosphatase specific protein methylesterase (MEase) (Homo sapiens, UniProt Q9Y570).
T2 construct: made in house
T2 sequence (Q9Y570 1-386): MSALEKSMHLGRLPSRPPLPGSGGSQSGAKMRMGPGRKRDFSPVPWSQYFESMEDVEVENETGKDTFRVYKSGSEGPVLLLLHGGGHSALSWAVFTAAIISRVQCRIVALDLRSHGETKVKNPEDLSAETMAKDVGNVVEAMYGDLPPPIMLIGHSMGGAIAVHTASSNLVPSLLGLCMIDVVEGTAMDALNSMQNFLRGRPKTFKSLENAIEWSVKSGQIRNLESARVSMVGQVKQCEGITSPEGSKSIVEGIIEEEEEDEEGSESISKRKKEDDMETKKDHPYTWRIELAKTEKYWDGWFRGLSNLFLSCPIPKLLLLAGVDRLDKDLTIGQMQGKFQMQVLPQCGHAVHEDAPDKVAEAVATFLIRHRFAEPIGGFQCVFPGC
Nature of the test: PP2A demethylation with [3H]-SAM and purified proteins (methylesterase activity). Format: biochemical. The note with it: purified methylated PP2A and MEase; read-out: ME (IC50). On the procedure: PP2A (methylated and unmethylated) were eluted with 1.6 mL of Buffer A containing 350 mM NaCl. Fractions (0.2 mL each) were collected and the radioactivity in each fraction was measured using the scintillation counter (LS 6000SE, Beckman). Fractions with highest radioactivity were containing purified methylated PP2A were pooled with a total volume of 0.6 mL-0.8 mL. Purified methylated PP2A (50 nM-100 nM) was incubated with MEase (5 nM-20 nM) in 20 μl-50 μl reaction at room temperature for 30 minutes. The reaction was terminated by adding TCA (2 μl-6 μl) to a final concentration of 10%. Released [^3H]-methanol in supernatants was counted with scintillation counter (LS 6000SE, Beckman).

Another test deals with JNPL3 transgenic mice. Description: Motor functions of JNPL3 transgenic mice (composite neuroscore). It counts as in vivo. Particulars: 0.1% diet. As to the method:
The JNPL3 transgenic mouse line that carries the transgene for the human P301 L mutation of the microtubule-associated protein tau gene (MAPT) was used in this experiment (Lewis et al., 2000). 9-12 weeks old homozygous JNPL3 males (Laconic Farms, Hudson, N.Y.) were housed under standard conditions (temperature 22±2° C.; relative humidity 50±10%; 12 h light/12 h dark cycle) and allowed to acclimatize for 2 weeks. Following acclimatization, two groups of animals (6 animals per group) are changed to control diet (Research Diets; New Brunswick, N.J.) or purified 0.1% Compound I-63 formulated diet. The composite neuroscore (NS) was used as the scoring system to measure the following tasks: (1) forelimb flexion response during suspension by the tail, (2) righting and postural reflexes, and (3) prehensile traction test (Yoshiyama et al., 2005; Korenova et al., 2009). The neurological and motor examination included the basic reflex response by special attention to the assessment of the hind-limb escape extension reflex, the righting and postural reflexes and the prehensile traction test where the animal is allowed to grasp with its forepaws a horizontal cotton string (1 mm in diameter) suspended 70 cm above a padded surface. The scoring conditions were graded as follows:
2—Animal maintained forelimbs in scissored, clasped or dystonic position
Postural and Righting Reflex:
0—Animal could right when placed supine
1—Animal righting slowed (>ls)
Prehensile Traction Test:
0—Animal could complete test with at least 3 paws and tail within 2 min
1—Animal could hold on to string without falling within 2 min
2—Animal fell before 2 min without completion
3—Animal was unable to perform test
Each animal was scored using a scaling system ranging from 0-12 (normal), 13-20 (mild or early), 21-23 (moderate) and 24-30 (severe) to reflect serious impairment of neuromuscular functionality and muscular weakness. […]
Motor test scores vs. weeks of mice fed control diet (closed circles) and 0.1% Compound I-63 formulated diet (open circles). […]

Another test concerns phosphorylated Tau. Description: Phosphorylated tau in vivo at four weeks (pS396 Western blot of brain). Also on record: species or system mice. The note with it: 0.1% in chow, phospho-Serine 396. On the procedure:
Swiss Webster mice (9-12 weeks old) were fed ad libitum, either standard rodent chow (Control), or rodent chow formulated with 0.1 g Compound I-63 per 100 g chow (0.1% Compound I-63) or 0.1 g Compound I-62 per 100 g chow (0.1% Compound I-62); water was changed weekly. Mice were housed at 23° C., on a 12 hour light and dark cycle, with 6 mice per cage. At 4 weeks, six mice from the Control, 0.1% Compound I-63 and 0.1% Compound I-62 groups were sacrificed by cervical dislocation, brains removed, snap-frozen in liquid nitrogen, and stored at −80° C. Brains were homogenized in 350 pi of buffer containing 20 mM MOPS-Na, pH 7.2, 1 mM EDTA/DTT, 0.5 mg/L of aprotinin, leupeptin and pepstatin, 100 nM okadaic acid, and clarified by centrifugation (14000 rpm, 10 min, 4° C.). Supernatant protein concentrations were measured by the Bradford method, 4 volumes of the supernatant and 1 volume of 5×SDS sample buffer were mixed and boiled for 2 minutes. Boiled homogenate ([…]) were loaded on 12% polyacrylamide gels, and transferred to nitrocellulose membranes. […] Protein bands were detected with the ECL Plus reagent (GE Healthcare) and blots scanned on a Molecular Dynamics Storm Imager. […]

T1 sequence (P67775 whole entry): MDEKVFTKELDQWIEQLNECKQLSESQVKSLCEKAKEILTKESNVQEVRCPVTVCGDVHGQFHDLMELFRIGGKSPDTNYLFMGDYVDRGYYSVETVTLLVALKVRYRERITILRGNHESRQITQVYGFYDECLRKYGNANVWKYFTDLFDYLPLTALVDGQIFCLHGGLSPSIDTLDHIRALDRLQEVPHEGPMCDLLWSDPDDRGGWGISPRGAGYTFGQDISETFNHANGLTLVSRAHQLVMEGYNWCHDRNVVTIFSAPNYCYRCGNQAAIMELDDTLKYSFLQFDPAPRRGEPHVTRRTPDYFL
T1 sequence (P30153 whole entry partner): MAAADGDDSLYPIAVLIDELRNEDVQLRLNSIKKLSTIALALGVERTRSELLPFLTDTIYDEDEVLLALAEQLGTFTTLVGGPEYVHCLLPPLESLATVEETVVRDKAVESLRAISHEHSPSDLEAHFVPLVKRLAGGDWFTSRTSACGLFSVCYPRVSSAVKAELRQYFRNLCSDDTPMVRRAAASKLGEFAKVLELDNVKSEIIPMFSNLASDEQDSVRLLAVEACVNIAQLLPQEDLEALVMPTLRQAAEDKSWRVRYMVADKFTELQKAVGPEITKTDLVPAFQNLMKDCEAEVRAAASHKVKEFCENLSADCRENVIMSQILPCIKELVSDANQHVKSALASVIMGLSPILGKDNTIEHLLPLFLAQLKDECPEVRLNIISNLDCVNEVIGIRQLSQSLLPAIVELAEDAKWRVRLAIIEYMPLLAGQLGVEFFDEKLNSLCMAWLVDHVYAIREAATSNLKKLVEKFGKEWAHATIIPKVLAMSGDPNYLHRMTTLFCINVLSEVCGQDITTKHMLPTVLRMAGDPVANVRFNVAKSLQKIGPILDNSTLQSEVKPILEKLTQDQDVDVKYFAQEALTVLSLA

Usually IC50 stands for the concentration at which inhibition is half-maximal. In the case of `CCCCCCCCCCCCCCCCCCCC(=O)NCCc1c[nH]c2ccc(O)cc12` [Compound I-63, N-(2-(5-hydroxy-1H-indol-3-yl)ethyl)icosanamide], the figures for the IC50 (against PP2A; in test [1]) were over 100 µM and under 10 µM, respectively. For the same molecule, the “mean motor test scores less than mice on control diet” value with JNPL3 transgenic mice (after eleven weeks) and in the test with JNPL3 transgenic mice (after twelve weeks) was 75% in each case. Also, in the test on JNPL3 transgenic mice (after ten weeks), the “protection from developing motor dysfunction” value is on record as “protection of JNPL3 transgenic mice from developing motor dysfunction”. Also, the “lowering of phosphorylated tau levels in the brain compared to control” value with phosphorylated Tau worked out at 40%.
